Measured values as given in article PMC9948168, “Vanillin-Based Indolin-2-one Derivative Bearing a Pyridyl Moiety as a Promising Anti-Breast Cancer Agent via Anti-Estrogenic Activity” (ACS Omega, 2023).

What was measured:
Test in all cases: NCI-60 one-dose screening
Format in all cases: cell-based
A498 = conditions: Homo sapiens, A498, Renal Cancer, read-out: GI (%)
BT-549 = conditions: Homo sapiens, BT-549, Breast Cancer, read-out: GI (%)
CCRF-CEM = conditions: Homo sapiens, Leukemias, read-out: GI (%)
COLO 205 = conditions: Homo sapiens, COLO 205, Colon Cancer, read-out: GI (%)
EKVX = conditions: Homo sapiens, Non-Small Cell Lung Cancer, read-out: GI (%)
HCC-2998 = conditions: Homo sapiens, HCC-2998, Colon Cancer, read-out: GI (%)
HCT-116 = conditions: Homo sapiens, HCT-116, Colon Cancer, read-out: GI (%)
HL-60(TB) = conditions: Homo sapiens, Leukemias, read-out: GI (%)
HOP-62 = conditions: Homo sapiens, HOP-62, Non-Small Cell Lung Cancer, read-out: GI (%)
HOP-92 = conditions: Homo sapiens, HOP-92, Non-Small Cell Lung Cancer, read-out: GI (%)
HS 578T = conditions: Homo sapiens, Breast Cancer, read-out: GI (%)
K-562 = conditions: Homo sapiens, K562, K-562, Leukemias, read-out: GI (%)
KM12 = conditions: Homo sapiens, KM12, Colon Cancer, read-out: GI (%)
MALME-3M = conditions: Homo sapiens, Melanoma, read-out: GI (%)
MCF7 = conditions: Homo sapiens, MCF7, 10 μM; MCF7, Breast Cancer; read-out: GI (%)
MDA-MB-231/ATCC = conditions: Homo sapiens, Breast Cancer, read-out: GI (%)
MDA-MB-468 = conditions: Homo sapiens, MDA-MB-468, Breast Cancer, read-out: GI (%)
NCI-H226 = conditions: Homo sapiens, NCI-H226, Non-Small Cell Lung Cancer, read-out: GI (%)
NCI-H322M = conditions: Homo sapiens, Non-Small Cell Lung Cancer, read-out: GI (%)
NCI-H460 = conditions: Homo sapiens, NCI-H460, Non-Small Cell Lung Cancer, read-out: GI (%)
NCI-H522 = conditions: Homo sapiens, NCI-H522, Non-Small Cell Lung Cancer, read-out: GI (%)
OVCAR-3 = conditions: Homo sapiens, OVCAR-3, 10 μM; OVCAR-3, Ovarian Cancer; read-out: GI (%)
OVCAR-5 = conditions: Homo sapiens, OVCAR-5, Ovarian Cancer, read-out: GI (%)
OVCAR-8 = conditions: Homo sapiens, OVCAR-8, Ovarian Cancer, read-out: GI (%)
PC-3 = conditions: Homo sapiens, PC-3, Prostate Cancer, read-out: GI (%)
SF-295 = conditions: Homo sapiens, SF-295, CNS Cancer, read-out: GI (%)
SK-MEL-2 = conditions: Homo sapiens, SK-MEL-2, Melanoma, read-out: GI (%)
SK-MEL-5 = conditions: Homo sapiens, SK-MEL-5, Melanoma, read-out: GI (%)
SN12C = conditions: Homo sapiens, Renal Cancer, read-out: GI (%)
SNB-19 = conditions: Homo sapiens, SNB-19, CNS Cancer, read-out: GI (%)
SNB-75 = conditions: Homo sapiens, SNB-75, CNS Cancer, read-out: GI (%)
SR = conditions: Homo sapiens, Leukemias, read-out: GI (%)
SW-620 = conditions: Homo sapiens, SW-620, Colon Cancer, read-out: GI (%)
TK-10 = conditions: Homo sapiens, TK-10, Renal Cancer, read-out: GI (%)
U251 = conditions: Homo sapiens, U-251, U251, CNS Cancer, read-out: GI (%)
UACC-257 = conditions: Homo sapiens, UACC-257, Melanoma, read-out: GI (%)

SMILES: COc1cc(/C=C2/C(=O)Nc3ccccc32)ccc1OCc1ccc(Cl)cc1 [6b]
- inhibition at 10 µM (A498): -15.1%
- inhibition at 10 µM (BT-549): -9.1%
- inhibition at 10 µM (CCRF-CEM): 5.07%
- inhibition at 10 µM (COLO 205): -16.1%
- inhibition at 10 µM (EKVX): 4.66%
- inhibition at 10 µM (HCC-2998): -23.5%
- inhibition at 10 µM (HCT-116): 13.1%
- inhibition at 10 µM (HL-60(TB)): -13.4%
- inhibition at 10 µM (HOP-62): -0.91%
- inhibition at 10 µM (HOP-92): -12.5%
- inhibition at 10 µM (HS 578T): -4.77%
- inhibition at 10 µM (K-562): 1.45%
- inhibition at 10 µM (KM12): 0.38%
- inhibition at 10 µM (MALME-3M): 4.51%
- inhibition at 10 µM (MCF7): 30.5%
- inhibition at 10 µM (MDA-MB-231/ATCC): 1%
- inhibition at 10 µM (MDA-MB-468): -1.64%
- inhibition at 10 µM (NCI-H226): 3.35%
- inhibition at 10 µM (NCI-H322M): 0.35%
- inhibition at 10 µM (NCI-H460): 58.9%
- inhibition at 10 µM (NCI-H522): 4.25%
- inhibition at 10 µM (OVCAR-3): -5.51%
- inhibition at 10 µM (OVCAR-5): -0.58%
- inhibition at 10 µM (OVCAR-8): -1.64%
- inhibition at 10 µM (PC-3): 5.22%
- inhibition at 10 µM (SF-295): -2.92%
- inhibition at 10 µM (SK-MEL-2): -5.45%
- inhibition at 10 µM (SK-MEL-5): -2.87%
- inhibition at 10 µM (SN12C): -2.93%
- inhibition at 10 µM (SNB-19): 2.91%
- inhibition at 10 µM (SNB-75): -3.58%
- inhibition at 10 µM (SR): 6.17%
- inhibition at 10 µM (SW-620): 3.4%
- inhibition at 10 µM (TK-10): -35.9%
- inhibition at 10 µM (U251): -7%
- inhibition at 10 µM (UACC-257): -24.7%
